Patent US8497089B2, “Method to predict toxicity using the analysis of dynamic organelle behaviour” (Innovative Concepts in Drug Development (ICDD), priority 2007, dated 2013)
Structures can show the parent of a compound that is named as a salt.

Assays:
[1] = test system: primary human fibroblasts; assay: Variations of mitochondrial motility; assay type: cell-based; details: 0.1 μM, 30 minutes to 16 hours at 37° C, vs vehicle; FIG. 2
Method: The speed of an organelle' movements is measured by the displacement in μm of this organelle within the lapse of two captured frames. This measure is repeated over the total length of the image capture. Speed can be expressed as an average velocity observed for an organelle over the duration of the capture or by the maximal velocity observed for an organelle over the same duration.
The amplitude of organelle movements is expressed as a variable of the frequency of bursts in the total displacement of one organelle. A burst is defined as a sudden displacement within 30% of the maximal displacements of an organelle during the period of capture.
The frequency of organelle movements is expressed as a number of periods during which the organelle remains immobile.
(§1) Images were captured for 20-40 frames every 3-15 sec on a z scale spanning 1 μm around the initial center of focus. Z slides were reconstructed to generate a movie that was further analyzed for mitochondrial tracking, shape recognition, length measurements and intensities measurements.
Mitochondrial displacement was assessed by the measure of the mitochondrial velocity, the amplitude of its movement and particularly the frequency of bursts and the frequency of movements represented by the periods of movement arrests (FIG. 2). […]

[2] = test system: primary human fibroblasts; assay: Variations of mitochondrial relationship with the cytoskeleton (area containing entwined mitochondria); details: area containing entwined mitochondria in percent of total cell area; FIG. 4 for paclitaxel
[3] = test system: primary human fibroblasts; assay: Variations of mitochondrial morphology (mitochondria length, doughnut formation); assay type: cell-based; details: 0.1 to 10 μM, in percent of the vehicle
Source text: Measured parameters can include, but are not restricted to, the length of the mitochondria allowing for an appreciation of the equilibrium between fusion and fission, the number of mitochondria in a doughnut shape per cell, the number of mitochondrial derived vesicle per cell and the number of mitochondria undergoing swelling/aggregation per cell.
as §1
Changes in mitochondrial morphology, i.e. in the mitochondria length and in the formation of doughnuts, were observed associated with compound toxicity in a dose dependent manner.
The mitochondria length and the formation of doughnuts are two parameters which indicate the dynamic modulation of the fission-fusion phenomenon that occurs in the mitochondria. When very short, the mitochondria cannot assume a doughnut shape anymore, thus making the loss of the doughnut shapes a signal very significant of a toxicity than cannot be compensate by the fission-fusion dynamics. When the equilibrium of fission-fusion is impaired the fragmentation of the mitochondria is associated with neurodegeneration (Knott et al., 2008).

Row | SMILES | number of immobilization periods of mitochondria [1] | variations of the mitochondrial motility [1] | variation of mitochondrial relationship with the cytoskeleton [2] | variations of mitochondria length ([3]; FIG. 3A) | variations of the formation of doughnuts ([3]; FIG. 3B)
1 | Cc1ccc(NC(=O)c2ccc(CN3CCN(C)CC3)cc2)cc1Nc1nccc(-c2cccnc2)n1 [imatinib mesylate] | increasing the number of immobilization periods of mitochondria | induced variations of the mitochondrial motility | did not induce any variation | induced variations | induced variations
2 | CC(=O)O[C@H]1C(=O)[C@@]2(C)[C@H]([C@H](OC(=O)c3ccccc3)[C@]3(O)C[C@H](OC(=O)[C@H](O)[C@@H](NC(=O)c4ccccc4)c4ccccc4)C(C)=C1C3(C)C)[C@]1(OC(C)=O)CO[C@@H]1C[C@@H]2O [paclitaxel] |  |  | affected the relationship of mitochondria with cytoskeleton in a dose-dependent manner |  | 
